{"source": "patent US5498601A", "about": "“Platelet aggregation-inhibiting peptides” (Nippon Steel Corporation, priority 1992, dated 1996)", "key": {"[1]": {"experiment": "stability of the synthetic peptides in human plasma", "assay_type": "in vitro ADME", "conditions": "37° C., peptide 100 μM; for half-life at 100 μM: male, read-out: Half-Time of the synthetic peptides in plasma", "procedure": "The blood sample thus prepared was examined for the stability in whole blood. […] Then, the supernatant was collected to obtain a plasma fraction. This plasma fraction was examined for the stability in plasma.\nThe whole blood or plasma (225 μl) was placed in a test tube and heated to 37° C. Each of the synthetic peptides was dissolved in saline (pH 7.4) to prepare a solution at a concentration of 1 mM. Each of the synthetic peptide solutions was added to the whole blood or plasma in an amount of 25 μl (final concentration: 100 μM) and incubated for a certain period of time. After the incubation, the solution was cooled with ice to stop the degradation reaction. The plasma was stored frozen at -20° C. without performing any treatments. The whole blood was centrifuged at 2000 g for 5 minutes at 4° C. and the supernatant was stored frozen.\nThe samples were analyzed by reversed phase HPLC. The peak area of each synthetic peptide was calculated and the stability in the whole blood or plasma was evaluated from the change of the peak area."}, "in vivo": {"experiment": "in vivo", "design": "species or system MCH (ICR) strain mice", "conditions": "male, MCH (ICR), mouse, iv; for half-life: Half-Time of the synthetic peptides in mice", "procedure": "For the evaluation of stability, MCH (ICR) strain mice (male, body weight: 28-32 g) were used. […] After a certain period of time, blood was collected from the abdominal vein using an injection syringe treated with heparin. Immediately after the collection, the blood was centrifuged (1500 g, 3 minutes) at 4° C. and the supernatant was stored frozen at -20° C. Each of the supernatants was analyzed by reversed phase HPLC in the same manner as that in the aforementioned evaluation of stability in plasma."}, "platelet aggregation": {"test_system": "platelet aggregation", "experiment": "intravenous injection in beagle, platelet aggregation of PRP measured over time", "assay_type": "in vivo", "conditions": "5 mg/Kg i.v.", "procedure": "(1) In order to examine how long the peptides of the present invention and heparin, which is used as an anticoagulant at present, can remain without being broken down or eliminated and how long the activity of them persists, intravenous injection experiments were carried out using beagles.\nSince the peptides of the present invention have the platelet aggregation-inhibiting activity, the amount of the peptides which remain in the body of an organism without being broken down can be determined by collecting blood and measuring the platelet aggregation-inhibiting activity of the blood at given intervals of time. Thus, the in vivo stability of the peptides can be estimated.\nIn the experiments, a male beagle having a body weight of 10 Kg was used. […] The collected blood was centrifuged at 1000 rpm for 10 minutes to prepare platelet-rich plasma (PRP). The reminder was further centrifuged at 3000 rpm for 15 minutes to prepare platelet-poor plasma (PPP).\nThe platelet aggregation ability was determined by measuring the platelet aggregation of the PRP with collagen and ADP using an aggregometer. In the measurement, ADP was added at a final concentration of 7.5 and 10.0 μM and collagen was added at a final concentration of 7.5 and 10.0 μg/ml."}, "human platelets": {"test_system": "human platelets", "experiment": "protection of human platelet fraction during storage", "conditions": "platelet fraction, enzymes present in plasma", "description": "Immediately after the blood collection, the syringe was stirred gently to mix the blood with the sodium citrate solution. The mixed blood was centrifuged (1100 rpm, 250 g) at room temperature for 15 minutes and the rotation was stopped without applying the brake. Then, the supernatant was collected with a pipette to obtain a platelet fraction. The remaining blood was further centrifuged (3000 rpm, 1000 g). The supernatant was collected to obtain platelet-poor plasma and stored.\nThe platelet fraction was placed in a polypropylene test tube, which was capped with a membrane filter to ensure breathability. Then, the test tube was placed on a shaker and stored at room temperature while shaking through vibrational amplitude of 20 cm at a frequency of 2 Hz. All the operations were performed under aseptic conditions to prevent the proliferation of bacteria during the storage.\nAfter the storage for a given period of time, an aliquot of the platelet fraction was sampled and the number of platelets was measured. Prostaglandin E1 (Sigma Co.) was added to give a final concentration of 20 μg/ml and centrifuged at 750 g for 10 minutes. The supernatant was removed and the remainder was washed twice with HEPES-Tyrode's buffer containing prostaglandin E1 to remove the protected peptide. Finally, the platelets were suspended in preliminarily stored platelet-poor plasma. After the incubation for a given period of time, the aggregation ability of the platelets was determined by the method described above."}, "blood coagulation": {"test_system": "blood coagulation", "experiment": "intravenous heparin in beagle, prothrombin time and activated partial thromboplastin time", "assay_type": "in vivo", "conditions": "200 U/Kg i.v.", "procedure": "(2) Heparin, currently used as an anticoagulant, was used as a comparison with the peptides of the present invention.\nTherefore, the in vivo stability of heparin was estimated by measuring the time-dependent change in the anticoagulation action which is the main action of heparin.\nIn the experiments, haparin as dissolved in saline was injected into the vein and blood was collected at given intervals of time to prepare PPP by the same method as that described in (1).\nIn the measurement of the anticoagulation action, the prepared PPP was used to measure prothrombin time, which is an indicator of blood coagulation activity in vitro, and activated partial thromboplastin time according to a conventional method. Each measurement was conducted under preincubation conditions at 37° C. for 3 minutes using AMELUNG KC-10A (Baxtor CO.). The rate of the disappearance of heparin from the body can be estimated by measuring the prolongations of the prothrombin time and the activated partial thromboplastin time (i.e., the prolongation of time up to coagulation) after the injection."}}, "note": "Non-standard residues stand in square brackets, D forms with d. Residues, ends and D or L forms follow the SMILES beside them. No end group written: not given here. *: point of attachment. pGlu = O=C1CC[C@@H](C(=O)O)N1; Pip = O=C(O)[C@@H]1CCCCN1; X2 = O=C(c1cc(O)nc(O)n1)*; Aze = O=C(O)[C@@H]1CCN1"}
{"compound": "N=C(N)NCCC[C@H](NC(=O)[C@H](CO)NC(=O)c1cc(O)nc(O)n1)C(=O)NCC(=O)N[C@@H](CC(=O)O)C(=O)N[C@@H](Cc1c[nH]c2ccccc12)C(=O)O", "note": "[Example 9, Orotyl--Ser--Arg--Gly--Asp--Trp--OH] (X2-SRGDW-OH)", "values": [{"measurement": "half-life at 100 μM", "setting": "[1]", "value": "≥ 240", "unit": "min"}, {"measurement": "Half-Time of the synthetic peptides in mice", "setting": "in vivo", "value": 6.9, "unit": "min"}, {"measurement": "half-life", "setting": "in vivo", "value": 10.1, "unit": "min"}, {"measurement": "time within which the peptide was broken down in the body or eliminated from the kidney", "setting": "platelet aggregation", "value": "≤ 60", "unit": "min"}]}
{"compound": "N=C(N)NCCC[C@H](NC(=O)[C@H](CO)NC(=O)[C@@H]1CCC(=O)N1)C(=O)NCC(=O)N[C@@H](CC(=O)O)C(=O)N[C@@H](Cc1c[nH]c2ccccc12)C(=O)O", "note": "[Example 11, Pyroglutamyl--Ser--Arg--Gly--Asp--Trp--OH] ([pGlu]SRGDW-OH)", "values": [{"measurement": "half-life at 100 μM", "setting": "[1]", "value": "≥ 240", "unit": "min"}]}
{"compound": "N=C(N)NCCC[C@H](NC(=O)[C@H](CO)NC(=O)[C@@H]1CCN1)C(=O)NCC(=O)N[C@@H](CC(=O)O)C(=O)N[C@@H](Cc1c[nH]c2ccccc12)C(=O)O", "note": "[Example 17, (L-2-Azetidinecarboxyl)--Ser--Arg--Gly--Asp--Trp--OH] (H-[Aze]SRGDW-OH)", "values": [{"measurement": "half-life at 100 μM", "setting": "[1]", "value": 49, "unit": "min"}, {"measurement": "half-life", "setting": "in vivo", "value": 3.3, "unit": "min"}]}
{"compound": "N=C(N)NCCC[C@H](NC(=O)[C@H](CO)NC(=O)[C@@H]1CCCCN1)C(=O)NCC(=O)N[C@@H](CC(=O)O)C(=O)N[C@@H](Cc1c[nH]c2ccccc12)C(=O)O", "note": "[Example 18, (L-Pipecolinyl)--Ser--Arg--Gly--Asp--Trp--OH] (H-[Pip]SRGDW-OH)", "values": [{"measurement": "Half-Time of the synthetic peptides in plasma", "setting": "[1]", "value": "at least 120 minutes"}, {"measurement": "half-life at 100 μM", "setting": "[1]", "value": "≥ 120", "unit": "min"}, {"measurement": "half-life", "setting": "in vivo", "value": 3.3, "unit": "min"}]}
{"compound": "N=C(N)NCCC[C@H](N)C(=O)NCC(=O)N[C@@H](CC(=O)O)C(=O)N[C@@H](Cc1ccccc1)C(=O)O", "note": "[RGDF, reference compound] (H-RGDF-OH)", "values": [{"measurement": "stability when added to a platelet fraction", "setting": "human platelets", "value": "broken down in several hours"}]}
{"compound": "PSRGDW-OH [Example 16, Pro--Ser--Arg--Gly--Asp--Trp--OH]", "values": [{"measurement": "Half-Time of the synthetic peptides in plasma", "setting": "[1]", "value": 74.5, "unit": "min"}, {"measurement": "half-life at 100 μM", "setting": "[1]", "value": 74.5, "unit": "min"}, {"measurement": "half-life", "setting": "in vivo", "value": "≤ 2", "unit": "min"}]}
{"compound": "WSRGDW-OH [Example 1, Trp--Ser--Arg--Gly--Asp--Trp--OH]", "values": [{"measurement": "Half-Time of the synthetic peptides in plasma", "setting": "[1]", "value": 11.5, "unit": "min"}, {"measurement": "half-life at 100 μM", "setting": "[1]", "value": 11.5, "unit": "min"}, {"measurement": "half-life", "setting": "in vivo", "value": "≤ 2", "unit": "min"}]}
{"compound": "heparin", "values": [{"measurement": "activated partial thromboplastin time", "setting": "blood coagulation", "value": "The same results were obtained"}, {"measurement": "time to completely recover prothrombin time to the level before injection", "setting": "blood coagulation", "value": "2 to 3", "unit": "h"}]}
